These are literature values, as cited in patent US10231947B2, “Isochroman compounds and methods of use thereof” (ARIZONA BOARD OF REGENTS ON BEHALF OF ARIZONA STATE …, priority 2017, dated 2019).

What is called EC50 is the concentration needed to bring the measured effect to its halfway point. What is called Kd is the free concentration of one partner at which half of the binding sites on the other are occupied at equilibrium, for simple one-to-one binding.

Data set [1] concerns the target hRXRβ (Homo sapiens, UniProt P28702). The settings on record: read-out: EC50 for the hRXRβ isoform.
The subject of data set [2] is hRXR. The conditions noted are these: Caco-2 cells.
Data set [3] concerns the target hRXR. The settings on record: Caco-2 cells. The source holds these as a separate data set.

Sequence of hRXRβ (P28702 whole entry, canonical isoform): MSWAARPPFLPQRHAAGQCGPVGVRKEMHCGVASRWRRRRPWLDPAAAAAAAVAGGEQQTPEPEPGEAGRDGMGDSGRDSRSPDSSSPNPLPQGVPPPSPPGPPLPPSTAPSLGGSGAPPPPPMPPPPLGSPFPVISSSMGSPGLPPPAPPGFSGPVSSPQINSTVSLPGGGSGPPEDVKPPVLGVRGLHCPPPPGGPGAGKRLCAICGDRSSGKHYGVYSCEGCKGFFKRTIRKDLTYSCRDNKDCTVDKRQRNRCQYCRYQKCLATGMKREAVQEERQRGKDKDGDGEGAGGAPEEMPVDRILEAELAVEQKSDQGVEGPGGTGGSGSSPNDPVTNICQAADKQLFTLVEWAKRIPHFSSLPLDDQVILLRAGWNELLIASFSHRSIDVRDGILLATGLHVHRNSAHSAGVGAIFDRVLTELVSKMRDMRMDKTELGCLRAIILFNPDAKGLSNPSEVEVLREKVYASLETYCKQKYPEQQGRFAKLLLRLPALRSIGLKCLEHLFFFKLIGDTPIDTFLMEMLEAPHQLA

`Cc1cc2c(cc1-c1cc(/C=C/C(=O)O)ccc1O)C(C)(C)CCC2(C)C` [CD3254]: the EC50 in data set [1] was roughly 10 nM.
As for `C=C(c1ccc(C(=O)O)c(F)c1)c1cc2c(cc1C)C(C)(C)CCC2(C)C` [compound 3], the EC50 in data set [2] was 43 nM. For the same compound, in data set [3], the Kd was 12 nM.
